According to patent US20230172930A1, “USE OF COMPLEMENT FACTOR D INHIBITORS ALONE OR IN COMBINATION WITH ANTI-C5 ANTIBODIES FOR TREATMENT OF PAROXYSMAL NOCTURNAL HEMOGLOBINURIA” (Alexion Pharmaceuticals, Inc., priority 2020, published 2023):
Several values for one entry are separate records, joined by “and”; a condition that tells them apart may be missing. Equal entries are not always repeated.

What was measured:
[1] = Phase 2 study: PNH clone size and C3 fragment deposition on erythrocytes by flow cytometry (anti-human C3d antibody); type: in vivo
Method: (§1) FIGS. 4A-4D are graphs depicting the effect on complement biomarkers and PNH clone size. […] Arithmetic mean and standard derivation (SD) were shown for all but the clone size of C3d^+ PNH erythrocytes where geometric mean was used, and the range was shown at each time point. NHS, normal human serum; BL, baseline; LLN, lower limit normal; ULN, upper limit normal.
(§2) Pharmacodynamics were determined by measuring serum AP activity with AP hemolysis assay. Serum CP activity, Plasma Bb concentration, serum FD, and C3 concentrations were also monitored. Complement tests were conducted by a central lab using commercial kits, with the exception of AP hemolysis assay which was conducted internally for exploratory purposes. At each AP hemolysis run, a single normal human serum sample was included in addition to the patient serum samples so hemolysis values of individual patient serum samples could be standardized to the hemolysis value of the normal human serum sample. Finally, PNH clone size and C3 fragment deposition on erythrocytes was measured using flow cytometry with FITC conjugated anti-human C3d antibody.

[2] = tested on: PNH erythrocytes; assay: as above; type: in vivo
Method: as §1, §2

[3] = tested on: PNH patients with an inadequate response to eculizumab; assay: Phase 2 study: RBC transfusion needs (events, units, annualized rates); type: in vivo, human
Method: Transfusion frequency and amount were evaluated via annualized rates and units, respectively. The average intensive rate of transfusion frequency before treatment was calculated by summing the number of transfusion events in the 52 weeks prior to Screening plus days from Screening to Day 1 of dosing from 10 patients and dividing this sum by the patients' total exposure times. The average intensive rate in the 24 weeks post-treatment was calculated with the same method. The ratio of these two intensive rates (post vs. pre) was used to quantify the treatment effect. Standard statistical analysis for comparing the two intensity rates (post- vs pre-treatment) was conducted.

[4] = tested on: PNH patients with an inadequate response to eculizumab; assay: Phase 2 study: safety and tolerability (TEAEs)
Description: After completing 24 weeks of treatment, patients entered a long-term extension.

[5] = N=11, Baseline, before danicopan, on eculizumab
[6] = Patient A, Baseline, before danicopan, on eculizumab 900 mg q14d
[7] = Patient B, Baseline, before danicopan, on eculizumab 1200 mg q14d
[8] = Patient C, Baseline, before danicopan, on eculizumab 900 mg q14d
[9] = Patient C, Week 12, danicopan 150 mg TID + eculizumab 900 mg q14d
[10] = Patient C, Week 24, danicopan 150 mg TID + eculizumab 900 mg q14d
[11] = Patient D, Baseline, before danicopan, on eculizumab 900 mg q14d
[12] = Patient D, Week 12, danicopan 150 mg TID + eculizumab 900 mg q14d
[13] = Patient D, Week 24, danicopan 150 mg TID + eculizumab 900 mg q14d
[14] = Patient E, Baseline, before danicopan, on eculizumab 1200 mg q14d
[15] = Patient E, Week 12, danicopan 150 mg TID + eculizumab 1200 mg q14d
[16] = Patient E, Week 24, danicopan 150 mg TID + eculizumab 1200 mg q14d
[17] = Patient F, Baseline, before danicopan, on eculizumab 900 mg q14d
[18] = Patient F, Week 12, danicopan 150 mg TID + eculizumab 900 mg q14d
[19] = Patient F, Week 24, danicopan 150 mg TID + eculizumab 900 mg q14d
[20] = Patient G, Baseline, before danicopan, on eculizumab 1500 mg q14d
[21] = Patient G, Week 12, danicopan 100 mg TID + eculizumab 1500 mg q14d
[22] = Patient G, Week 24, danicopan 100 mg TID + eculizumab 1500 mg q14d
[23] = Patient H, Baseline, before danicopan, on eculizumab 900 mg q14d
[24] = Patient H, Week 12, danicopan 200 mg TID + eculizumab 900 mg q14d
[25] = Patient I, Baseline, before danicopan, on eculizumab 900 mg q14d
[26] = Patient I, Week 12, danicopan 100 mg TID + eculizumab 900 mg q14d
[27] = Patient J, Baseline, before danicopan, on eculizumab 1200 mg q14d
[28] = Patient J, Week 12, danicopan 100 mg TID + eculizumab 1200 mg q14d
[29] = Patient J, Week 24, danicopan 200 mg TID + eculizumab 1200 mg q14d
[30] = Patient K, Baseline, before danicopan, on eculizumab 900 mg q14d
[31] = Patient K, Week 12, danicopan 100 mg TID + eculizumab 900 mg q14d
[32] = Patient K, Week 24, danicopan 150 mg TID + eculizumab 900 mg q14d
[33] = pre-danicopan: 52-week history plus screening to Day 1, ten patients on eculizumab

## CC(=O)c1nn(CC(=O)N2C[C@H](F)C[C@H]2C(=O)Nc2cccc(Br)n2)c2ccc(-c3cnc(C)nc3)cc12 [Danicopan, danicopan]
[1]; Week 24
  clone size of PNH granulocytes, mean±SD: 95±7.2%
[1]; baseline
  clone size of PNH granulocytes, mean±SD: 92±9.2%
[2]; N=7, Week 24, danicopan 100-200 mg TID + eculizumab
  PNH RBC clone size, mean: 84±22.1% and 84%
[2]; [5]
  C3d^+ PNHRBCs, geometric mean: 22% and 22.2%
  PNH RBC clone size, mean: 54±24.9% and 54%
[2]; N=11, Week 24, danicopan 100-200 mg TID + eculizumab
  C3d^+ PNHRBCs, geometric mean: 6.7% and 6.68%
[2]; [6]
  C3d^+ PNHRBCs: 6.30%
  PNH RBC clone size: 41%
[2]; Patient A, Week 12, danicopan 150 mg TID + eculizumab 900 mg q14d
  PNH RBC clone size: 83%
[2]; Patient A, Week 24, danicopan 150 mg TID + eculizumab 900 mg q14d
  C3d^+ PNHRBCs: 2.20%
[2]; [7]
  C3d^+ PNHRBCs: 8.20%
  PNH RBC clone size: 80%
[2]; Patient B, Week 12, danicopan 100 mg TID + eculizumab 900 mg q14d
  PNH RBC clone size: 89%
[2]; Patient B, Week 24, danicopan 100 mg TID + eculizumab 900 mg q14d
  C3d^+ PNHRBCs: 1.00%
[2]; [8]
  C3d^+ PNHRBCs: 17.5%
  PNH RBC clone size: 22%
[2]; [9]
  C3d^+ PNHRBCs: 18.6%
  PNH RBC clone size: 59%
[2]; [10]
  C3d^+ PNHRBCs: 16.7%
  PNH RBC clone size: 51%
[2]; [11]
  C3d^+ PNHRBCs: 15.9%
  PNH RBC clone size: 52%
[2]; [12]
  C3d^+ PNHRBCs: 0.200%
  PNH RBC clone size: 99%
[2]; [13]
  C3d^+ PNHRBCs: 5.20%
  PNH RBC clone size: 100%
[2]; [14]
  C3d^+ PNHRBCs: 21.3%
  PNH RBC clone size: 21%
[2]; [15]
  C3d^+ PNHRBCs: 11.8%
  PNH RBC clone size: 37%
[2]; [16]
  C3d^+ PNHRBCs: 4.90%
  PNH RBC clone size: 53%
[2]; [17]
  C3d^+ PNHRBCs: 71.0%
  PNH RBC clone size: 95%
[2]; [18]
  C3d^+ PNHRBCs: 48.0%
  PNH RBC clone size: 99%
[2]; [19]
  C3d^+ PNHRBCs: 53.4%
  PNH RBC clone size: 98%
[2]; [20]
  C3d^+ PNHRBCs: 80.0%
  PNH RBC clone size: 62.8%
[2]; [21]
  C3d^+ PNHRBCs: 29.4%
  PNH RBC clone size: 90.4%
[2]; [22]
  C3d^+ PNHRBCs: 57.0%
  PNH RBC clone size: 96.0%
[2]; [23]
  C3d^+ PNHRBCs: 38.8%
  PNH RBC clone size: 19%
[2]; [24]
  C3d^+ PNHRBCs: 14.9%
  PNH RBC clone size: 71%
[2]; Patient H, Week 24, danicopan 200 mg TID + eculizumab 900 mg q14d
  C3d^+ PNHRBCs: 22.8%
[2]; [25]
  C3d^+ PNHRBCs: 13.6%
  PNH RBC clone size: 73%
[2]; [26]
  C3d^+ PNHRBCs: 0.400%
  PNH RBC clone size: 95%
[2]; Patient I, Week 24, danicopan 200 mg TID + eculizumab 900 mg q14d
  C3d^+ PNHRBCs: 0.100%
[2]; [27]
  C3d^+ PNHRBCs: 34.3%
  PNH RBC clone size: 60%
[2]; [28]
  C3d^+ PNHRBCs: 59.5%
  PNH RBC clone size: 99%
[2]; [29]
  C3d^+ PNHRBCs: 28.7%
  PNH RBC clone size: 99%
[2]; [30]
  C3d^+ PNHRBCs: 20.2%
  PNH RBC clone size: 55%
[2]; [31]
  C3d^+ PNHRBCs: 44.2%
  PNH RBC clone size: 84%
[2]; [32]
  C3d^+ PNHRBCs: 6.30%
  PNH RBC clone size: 91%
[3]; post- vs. pre-danicopan
  reduction in transfusion frequency: 95.8%
[3]; post-danicopan (24 weeks)
  average annualized rate of transfusion events: 0.217
  average annualized transfusion units: 0.43
[3]; pre-danicopan
  average annualized rate of transfusion events: 5.234
  average annualized transfusion units: 9.27
[3]; [33]
  transfusions administered: 57
  units of packed red blood cells (PRBC): 101 units
[3]; since commencing danicopan through week 24, ten patients
  units transfused: 2 units
[4]; 11 patients completing treatment
  discontinuations due to TEAEs: no discontinuations due to TEAEs
[4]; Day 70, resolved by Day 77, attributed to breakthrough hemolysis
  Grade 3 direct bilirubin elevation with grade 1 ALT elevation: One patient experienced a Grade 3 direct bilirubin elevation
[4]; Day 145, recovered Day 152, relationship to study drug considered unlikely
  severe adverse event of pneumonia requiring hospitalization: The second patient experienced a severe adverse event of pneumonia
[4]; N=11
  Number of Patients Reporting a TEAE, %: (100) %
[4]; TEAE, N=11
  Abdominal pain, %: (18) %
  Contusion, %: (18) %
  Cough, %: (18) %
  Fatigue, %: (18) %
  Headache, %: (27) %
  Nasopharyngitis, %: (18) %
  Nausea, %: (18) %
  Oropharyngeal, %: (18) %
  Pain in extremity, %: (18) %
[4]; danicopan 100-200 mg TID + eculizumab, 24 weeks
  tolerability: generally well tolerated
[4]; of twelve enrolled, considered unlikely related to danicopan
  discontinuation due to serious adverse event (worsening pulmonary hypertension/edema): One discontinued after 2 doses
[4]; share of treatment TEAEs
  TEAEs mild to moderate in severity: 96%
